A value given as a limit tells only on which side of the number the result lay.

The test has as its target T1, Human IL-17A (Homo sapiens, UniProt Q16552).
T1 sequence (Q16552 20-155 limits assumed): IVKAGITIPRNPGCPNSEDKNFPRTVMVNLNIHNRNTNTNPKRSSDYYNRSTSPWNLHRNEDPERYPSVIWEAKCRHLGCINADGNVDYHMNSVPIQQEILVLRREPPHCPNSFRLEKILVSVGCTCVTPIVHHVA
The experiment in a line: IL-17A enzyme-linked immunosorbent assay (competitive ELISA, IL-17A/IL-17Ra receptor-ligand binding). Also noted: purchased Sino Biological Inc. 12047-H07B. The settings on record: human IL-17A coated plate, human IL-17Ra, read-out: IC50, inhibitory activity of compounds on human IL-17A. Here is the method:
Experimental Example 1 IL-17A Enzyme-Linked Immunosorbent Assay (ELISA)
The inhibitory effects of human IL-17A inhibitors on receptor-ligand binding were quantitatively determined by a competitive enzyme-linked immunosorbent assay (ELISA). The ELISA was performed through the following steps.
Human IL-17A (Sino Biological Inc., Cat #12047-H07B) was diluted with coating buffer (50 mM phosphate-buffered saline (PBS), pH 7.4) to give an IL-17A concentration of 0.2 μg/ml. 100 μL of the resulting solution was added to each well of a 96-well plate, and the plate was incubated at 37° C. for 30 min. In a blank group, 100 100 μL of the coating buffer was added instead of the IL-17A solution.
The plate was washed four times with 10 mM phosphate-buffered saline containing 0.05% Tween-20 (PBST, pH 7.4). 200 μL of PBST was used per well for each wash. After the final wash, the plate was tapped dry on absorbent paper.
Fresh 5% (w/v) skim milk solution was prepared before the experiment. For example, 5 g of skim milk powder (Bio-Rad, 170-6404) was completely dissolved in 100 mL of 10 mM PBST. 200 μL of the 5% (w/v) skim milk solution was added to each well, and the plate was incubated on a shaker at 25° C. for 30 min.
(S4) Preparation of 100× to-be-Tested Compound Solutions
During step (S3), the to-be-tested compound solutions were prepared, respectively. Each powdered compound was dissolved in dimethyl sulfoxide (DMSO) to reach a storage concentration of 10 mM. The to-be-tested compound solutions were then serially diluted four-fold with DMSO to obtain nine storage concentrations ranging from […].
(S6) Pre-incubation of IL-17A with to-be-tested compound solutions
89 μL of PBST and 1 μL of each of the to-be-tested compound solutions were added to each well and mixed. The plate was pre-incubated at 25° C. for 10 min. In the blank group and the control group, 1 μL of DMSO was added instead of the to-be-tested compound solutions.
(S7) Incubation with Human Interleukin-17 Receptor a (IL-17Ra)
10 μL of 16 nM human IL-17Ra (Sino Biological Inc., Cat #10895-H03H) was added, followed by incubation on a shaker at 25° C. for 30 min. The receptor solution was prepared in 10 mM PBST.
(S9) Incubation with Horseradish Peroxidase-Conjugated Antibody
100 μL of mouse anti-Fc tag horseradish peroxidase (HRP)-conjugated antibody (Sino Biological Inc., Cat #10702-MM01T-H) was added to each well. The plate was incubated on a shaker at 25° C. for 30 min. The antibody was diluted with 5% (w/v) skim milk solution at 1:5,000 (v/v).
100 μL of 3,3′,5,5′-tetramethylbenzidine (TMB) substrate solution (BD, Cat #555214) was added to each well. Substrate A and substrate B were freshly mixed at a volume ratio of 1:1 before use. The plate was incubated in the dark at 25° C. for 5-15 min.
(S12) Termination and Detection
The color reaction was terminated by addition of 2.5 M hydrochloric acid (HCl). Absorbance was measured at 450 nm using a BMG PHERStar microplate reader.
(S13) Calculation of Half-Maximal Inhibitory Concentration (IC50)
The relative percent residual activity at each compound concentration was calculated according to Equation 1. The IC50 value of each test compound was then calculated in GraphPad 6 using the equation for log(inhibitor) versus normalized response with variable slope, as shown in Equation 2.
relative percent residual activity (%)=[(absorbance of sample−absorbance of blank group)/(absorbance of control group−absorbance of blank group)]%. Equation 1: […]
The compounds prepared in the above examples were tested for IL-17A inhibitory activity according to the above method.
In general terms: In an ELISA, binding on a coated surface is turned into a signal by an enzyme label.
A word on the IC50: it is the point on the concentration scale where inhibition reaches its midpoint. `Cc1[nH]nc2c1-c1cc(F)c(NC(=O)[C@@H](NC(=O)c3ccnn3CCCF)C(C3CC3)C3CC3)cc1CN(C(C)C(F)(F)F)C(=O)C2` (mixture of isomers) [compound 249]: the IC50 is no more than 50 nM.

For the compound `Cc1[nH]nc2c1-c1cc(F)c(NC(=O)[C@@H](NC(=O)c3ccnn3C(C)C)C(C3CC3)C3CC3)cc1CN(C1(C(F)(F)F)CC1)CC2` [compound 213], the IC50 was no more than 50 nM.

`Cc1nonc1C(=O)N[C@H](C(=O)Nc1ccc2c(c1)COCCc1n[nH]c(C)c1-2)C(C1CC1)C1CC1` [compound 4]: the IC50 is no more than 50 nM.

With `Cc1[nH]nc2c1-c1cnc(NC(=O)[C@@H](NC(=O)OC3CCC3)C(C3CC3)C3CC3)cc1COCC2` [compound 247], the IC50 lay in the range of 50 to 150 nM.

Regarding `[2H]C([2H])([2H])n1nccc1C(=O)N[C@H](C(=O)Nc1cc2c(cc1F)-c1c(n[nH]c1C)CCOC2)C(C1CC1)C1CC1` [compound 18], the IC50 fell in the range of 50 to 150 nM.

For `Cc1[nH]nc2c1-c1cc(F)c(NC(=O)[C@@H](NC(=O)c3ccnn3[C@@H](C)CO)C3CCCCC3)cc1COCC2` [compound 50], the IC50 lay within 50 to 150 nM.

Turning to `CC(C)=C(F)C(=O)N[C@H](C(=O)Nc1cc2c(cn1)-c1c(n[nH]c1C)CC(=O)N(C(C)C(F)(F)F)C2)C(C1CC1)C1CC1` (mixture of isomers) [compound 256], the IC50 was no more than 50 nM.

`Cc1[nH]nc2c1-c1cnc(NC(=O)[C@@H](NC(=O)c3ccnn3C(C)C)C(C3CC3)C3CC3)cc1CN(C1CC(F)(F)C1)CC2` [compound 203]: the concentration for half-maximal inhibition (IC50) was no more than 50 nM.

Consider `Cc1[nH]nc2c1-c1cc(F)c(NC(=O)[C@@H](NC(=O)c3ccnn3CC3(C(F)(F)F)CC3)C(C3CC3)C3CC3)cc1COCC2` [compound 91], for which the IC50 is 50 to 150 nM.

As to `Cc1[nH]nc2c1-c1cnc(NC(=O)[C@@H](NC(=O)c3ccnn3C(C)C)C(C3CC3)C3CC3)cc1CN(C(C)C(F)(F)F)C(=O)C2` (mixture of isomers) [compound 204], the IC50 was no more than 50 nM.

Take `COCCN1Cc2cc(NC(=O)[C@@H](NC(=O)c3nonc3C)C(C3CC3)C3CC3)c(F)cc2-c2c(n[nH]c2C)CC1=O` [compound 141]: the IC50 was no more than 50 nM.

Consider `C=C(F)C(=O)N[C@H](C(=O)Nc1cc2c(cc1F)-c1c(n[nH]c1C)CC(=O)N(C(C)C(F)(F)F)C2)C(C1CC1)C1CC1` (mixture of isomers) [compound 253], for which the IC50 was no more than 50 nM.

For the compound `Cn1nccc1C(=O)N[C@H](C(=O)Nc1cc2c(cc1Cl)-c1c[nH]nc1CCOC2)C(C1CC1)C1CC1` [compound 31], the IC50 lay within 150 to 1000 nM.

For the compound `CCn1nccc1C(=O)N[C@H](C(=O)Nc1ccc2c(c1)CCOCc1n[nH]c(C)c1-2)C(C1CC1)C1CC1` [compound 14], the IC50 was 50 to 150 nM.

`Cc1[nH]nc2c1-c1cc(F)c(NC(=O)[C@@H](NC(=O)c3ccnn3C(C)C)C(C3CC3)C3CC3)cc1CN(C1(C(F)(F)F)CC1)C(=O)C2` [compound 209]: the IC50 was no more than 50 nM.

Consider `Cc1[nH]nc2c1-c1cc(F)c(NC(=O)[C@@H](NC(=O)c3ccnn3[C@@H](C)CO)C(C3CC3)C3CC3)cc1COCC2` [compound 55], for which the IC50 is no more than 50 nM.

Regarding `Cc1[nH]nc2c1-c1cnc(NC(=O)[C@@H](NC(=O)c3ccnn3C(C)C)C(C3CC3)C3CC3)cc1CN(C1(C(F)(F)F)CC1)CC2` [compound 212], the IC50 was no more than 50 nM.

For the compound `C=C(F)C(=O)N[C@H](C(=O)Nc1cc2c(cn1)-c1c(n[nH]c1C)CCN(C1CC1)C2)C(C1CC1)C1CC1` [compound 224], the IC50 is no more than 50 nM.

As to `CCc1nonc1C(=O)N[C@H](C(=O)Nc1cc2c(cc1F)-c1c(n[nH]c1C)CCOC2)C(C1CC1)C1CC1` [compound 21], the IC50 is no more than 50 nM.

`Cc1[nH]nc2c1-c1cc(F)c(NC(=O)[C@@H](NC(=O)c3ccnn3C3CC3)C(C3CC3)C3CC3)cc1CN(C)C(=O)C2` [compound 135]: the IC50 is no more than 50 nM.

Turning to `Cc1[nH]nc2c1-c1cnc(NC(=O)[C@@H](NC(=O)/C(F)=C\C(C)C)C(C3CC3)C3CC3)cc1CN(C(C)C(F)(F)F)C(=O)C2` (mixture of isomers) [compound 254], the IC50 is no more than 50 nM.

As to `Cc1[nH]nc2c1-c1cnc(NC(=O)C(NC(=O)c3conc3C(C)C)C(C3CC3)C3CC3)cc1CN(C(C)C(F)(F)F)C(=O)C2` (racemic) [compound 225], the IC50 is no more than 50 nM.

Take `Cc1[nH]nc2c1-c1cc(F)c(NC(=O)[C@@H](NC(=O)c3ccnn3C(C)C)C(C3CC3)C3CC3)cc1CN(C(C)(C)C(F)(F)F)C(=O)C2` [compound 207]: the IC50 is no more than 50 nM.

With `Cc1[nH]nc2c1-c1cc(F)c(NC(=O)[C@@H](NC(=O)c3ccnn3C(F)F)C(C3CC3)C3CC3)cc1COCC2` [compound 83], the IC50 lay in the range of 50 to 150 nM.

As to `Cc1[nH]nc2c1-c1cc(F)c(NC(=O)[C@@H](NC(=O)c3ccnn3CCCO)C(C3CC3)C3CC3)cc1COCC2` [compound 56], the IC50 was no more than 50 nM.

For `Cc1[nH]nc2c1-c1cc(F)c(NC(=O)[C@@H](NC(=O)c3cccc(-c4ccn[nH]4)c3)C(C3CC3)C3CC3)cc1COCC2` [compound 228], the IC50 was no more than 50 nM.

In the case of `Cc1[nH]nc2c1-c1cnc(NC(=O)[C@@H](NC(=O)/C(F)=C\C3CC3)C(C3CC3)C3CC3)cc1CN(C1CC1)CC2` [compound 221], the IC50 is no more than 50 nM.

As for `Cc1[nH]nc2c1-c1cnc(NC(=O)[C@@H](NC(=O)c3cnnn3C(C)C)C(C3CC3)C3CC3)cc1COCC2` [compound 243], the IC50 was no more than 50 nM.

As to `Cc1[nH]nc2c1-c1cc(F)c(NC(=O)[C@@H](NC(=O)c3ccnn3C3CCC3)C(C3CC3)C3CC3)cc1COCC2` [compound 72], the IC50 was no more than 50 nM.

On to `Cc1[nH]nc2c1-c1cc(F)c(NC(=O)[C@@H](NC(=O)c3cnnn3C(C)C)C(C3CC3)C3CC3)cc1COCC2` [compound 231], for which the IC50 is no more than 50 nM.

`Cc1[nH]nc2c1-c1cnc(NC(=O)[C@@H](NC(=O)c3ccnn3C(C)C)C(C3CC3)C3CC3)cc1CN(C(C)(C)C(F)(F)F)CC2` [compound 210]: the IC50 was no more than 50 nM.

For `CC(C)=C(F)C(=O)N[C@H](C(=O)Nc1cc2c(cn1)-c1c(n[nH]c1C)CCN(C1CC1)C2)C(C1CC1)C1CC1` [compound 223], the IC50 is no more than 50 nM.

As to `Cc1[nH]nc2c1-c1cc(F)c(NC(=O)[C@@H](NC(=O)c3ccnn3C(CF)CF)C(C3CC3)C3CC3)cc1COCC2` [compound 95], the half-inhibitory concentration (IC50) was no more than 50 nM.

As to `Cc1[nH]nc2c1-c1cc(F)c(NC(=O)[C@@H](NC(=O)c3ccnn3[C@@H](C)CO)[C@H]3CC[C@H](C)CC3)cc1COCC2` [compound 47], the IC50 is no more than 50 nM.

On to `Cc1[nH]nc2c1-c1cc(F)c(NC(=O)[C@@H](NC(=O)c3conc3C(C)C)C(C3CC3)C3CC3)cc1CN(C(C)C(F)(F)F)C(=O)C2` (mixture of isomers) [compound 248], for which the IC50 was no more than 50 nM.

For the compound `Cc1[nH]nc2c1-c1cc(F)c(NC(=O)[C@@H](NC(=O)c3ccnn3CC(C)(C)C#N)C(C3CC3)C3CC3)cc1COCC2` [compound 77], the IC50 was 50 to 150 nM.

Take `Cc1[nH]nc2c1-c1ccc(NC(=O)[C@@H](NC(=O)c3ccnn3[C@@H](C)CO)C(C3CC3)C3CC3)cc1COCC2` [compound 51]: the IC50 is no more than 50 nM.

On to `Cc1[nH]nc2c1-c1cc(F)c(NC(=O)[C@@H](NC(=O)c3ccnn3CCOC(F)F)C(C3CC3)C3CC3)cc1COCC2` [compound 107], for which the IC50 is no more than 50 nM.

Take `Cc1[nH]nc2c1-c1cc(F)c(NC(=O)[C@@H](NC(=O)c3ccnn3C3CSC3)C(C3CC3)C3CC3)cc1COCC2` [compound 112]: the IC50 was no more than 50 nM.

Source of the values: patent US20260258050A1, “IMMUNOMODULATOR” (HITGEN INC., priority 2023, published 2026).
